Source: patent US10918687B2, “Kava derived therapeutic compounds and methods of use thereof” (KUALITY HERBCEUTICS LLC, priority 2013, dated 2021)

Legend:
[1] = system: NNK-induced DNA damage in liver tissues; assay: NNK-induced DNA damage in A/J mouse liver tissues; format: in vivo, A/J mice; conditions: diet Day 1-Day 7, 24 h after NNK; data not shown
Protocol: DNA was isolated and purified from ˜100 mg lung and liver tissues of each mouse, following Genomic-tip 100/G protocol from Qiagen Corp (Valencia, Calif.).
(§1) After one-week acclimation, A/J mice were weighed and randomized into ten groups (3 mice per group except for Group 1 that had one mouse as the negative control) and switched to the AIN-93 G diet on a date defined as Day 1. Mice in Groups 1 and 2 were given the AIN-93 G diet during Day 1-Day 7. Mice in Groups 3-10 were given the AIN-93 G diets supplemented with kava, (+)-DHK, (+)-DHM, and synthetic (±)-DHM respectively at the specified dose during Day 1-Day 7. Mice in Groups 2-10 were given a single dose of NNK at 100 mg/kg bodyweight in saline (0.1 ml) via i.p. injection at the beginning of Day 7 while the mouse in Group 1 was given saline (0.1 ml). Mice were euthanized by CO2 overdosing 24 h after NNK treatment, and lung and liver tissues were collected and stored at −80° C. until DNA isolation. A set of NNK-induced DNA adducts (O^6-mG, 7-mG, 7-pobG, O^6-pobdG, O^2-pobdT, 7-phbG, O^6-phbdG and O^2-phbdT) were quantified by following reported procedures (Leitzman, P et al. (2014) Cancer. Prev. Res., 7: 86-96; Peterson, L A et al. (2013) Chem. Res. Toxicol. 26: 1464-1473; Upadhyaya, P et al. (2008) Chem. Res. Toxicol. 21: 1468-1476). For 7-mG isolation, DNA (30 μg) was dissolved in 10 mM sodium phosphate buffer, pH 7 (500 μL) and spiked with [^13C1^2H3]7-mG (10 pmol). Samples were heated to 80° C. for 30 minutes. An aliquot (100 μL) was removed for 7-mG analysis.

[2] = system: NNK-induced DNA adducts in lung tissues; assay: NNK-induced DNA adducts in A/J mouse lung tissues (LC-ESI-MS/MS); format: in vivo, A/J mice; conditions: 24 h after NNK; for minimum chemopreventive (effective) dose estimated from DNA adduct reduction: dose-response of O^6-mG reduction in lung
Source text: DNA was isolated from the whole lung tissue of each individual mouse following Puregene DNA isolation protocol (Qiagen Corp, Valencia, Calif.) (Urban et al., Chem Res Toxicol 2012; 25:2167-78). 7-pobG, O^2-pobdT, O^6-pobdG, and O^6-mG were quantified by LC-ESI-MS/MS, following established protocols (Urban et al., Chem Res Toxicol 2012; 25:2167-78; Peterson et al., Cancer Res 1991; 51:5557-64).
After one-week acclimation, A/J mice were weighed and randomized into seven groups (3 mice per group) and switched to the AIN-93 G diet on a date defined as Day 1. Mice in Groups 1 and 2 were given the AIN-93 G diet during Day 1-Day 7. Mice in Groups 3-7 were given the AIN-93 G diet supplemented with desmethoxyyangonin, (+)-DHK, (+)-kavain, (+)-DHM, or (+)-methysticin respectively, at a dose of 1 mg/g of diet during Day 1-Day 7. Mice in Groups 2-7 were given a single dose of NNK at 100 mg/kg bodyweight in saline (0.1 ml) via intraperitoneal (i.p.) injection at the beginning of Day 7 while mice in Group 1 were given saline (0.1 ml). Mice were euthanized by CO2 overdosing 24 h after NNK treatment, and lung tissues were collected and stored at −80° C. until DNA isolation. A number of NNK-induced DNA modifications (O^6-mG, 7-pobG, O^6-pobdG and O^2-pobdT) were quantified by following a reported procedure (Leitzman, P et al. (2014) Cancer. Prev. Res., 7: 86-96).
as §1

[3] = system: APAP-induced hepatotoxicity; assay: Short-term combination study: potentiation of APAP-induced hepatotoxicity in C57BL/6 mice; conditions: 3-day daily gavage, DHM 37.5 mg/kg, FKB 11.5 mg/kg
Source text: Six week-old female C57BL/6J mice (Jackson Laboratories, ME) were housed at specific pathogen-free animal facilities of Research Animal Resources, University of Minnesota with free access to standard rodent food and water. All mice were acclimatized for one week before being used for experiments. Mice were gavaged with dose formulations at the indicated doses and times, euthanized by CO2 overdosing with necropsy performed by experienced researchers.
The short-term combination studies were designed to evaluate the potential synergism of kava and its chemicals to APAP induced hepatotoxicity. C57BL/6 mice were randomized (8-15 mice per group) and were administered with PEG-400 (200 μL), kava (500 mg/kg bodyweight), DHM or FKA and FKB in PEG-400 (200 μL) at the indicated doses daily via oral gavage for two days. On the third day, mice in the respective groups were co-administered with APAP (800 mg/kg bodyweight) in PEG-400 (200 μL). Bodyweight was recorded daily. Necropsies were performed 24 hours after the last gavage by experienced researchers. Serum from each mouse was analyzed for ALT and AST. Livers were collected and preserved in 10% neutral buffered formalin. Appropriately fixed tissues were processed into paraffin blocks using standard histological techniques, and 5 μm sections were cut and stained with hematoxylin and eosin (H&E).
The clinical chemistry data were reported as mean±SD (n=4-15). […] One-way analysis of variance (ANOVA) was used to compare the means among different groups in the short-term combination studies. Dunnett's test was used for comparisons of APAP and other treatment groups when the one-way ANOVA analysis was statistically significant. p-value≤0.05 was considered statistically significant. All analyses were conducted in GraphPad Prism 4 (GraphPad Software, Inc. La Jolla, Calif.).

[4] = system: PhIP-induced DNA damage in hepe1c1c7 cells; assay: PhIP-induced DNA damage in hepe1c1c7 cells; format: cell-based, rodent; conditions: 1, 5 and 25 μM co-treated with PhIP (10 μM) for 24 hours
Source text: (§2) The goal of this study was to explore the potential scope of dihydromethysticin in blocking/reducing different carcinogen-induced DNA damage and detoxifying such carcinogens. […] Benzo(a)pyrene (BaP) is a representative polyaromatic hydrocarbon-based carcinogen in cigarette smoke and is present in various industrial/motor exhaust/waste. BaP is a human carcinogen to lung, stomach and other tissues. A rodent liver cancer cell line was used in these studies. Briefly, the hepe1c1c7 cells were co-treated with dihydromethysticin (1, 5, and 25 μM) and PhIP (10 μM) for 24 hours with DNA isolated and PhIP-based DNA damage quantified (FIG. 28A). […] Similarly the cells were co-treated with dihydromethysticin (1, 5, and 25 μM) and BaP (0.3 μM) for 3 hours with DNA isolated and BaP-based DNA damage quantified (FIG. 28B).

[5] = system: BaP-induced DNA damage in hepe1c1c7 cells; assay: BaP-induced DNA damage in hepe1c1c7 cells; format: cell-based, rodent; conditions: 1, 5 and 25 μM co-treated with BaP (0.3 μM) for 3 hours
Source text: as §2

[6] = system: human lung H2009 cancer cell line tumors; assay: H2009 human lung cancer xenograft in nude mice; format: in vivo; conditions: 40 mg/kg bodyweight via i.p. injection or oral gavage
Protocol: Typically human origin lung cancer cells were cultured and mixed with Metrigel. 2-5×10^6 cells were inoculated in the nude mice. Mice were randomized into different groups when the tumor size reached ˜50 mm^3. Treated mice received drug candidate at a dose of 40 mg/kg bodyweight via i.p. injection or oral gavage. The tumor size was monitored once or twice a week until 5 weeks since the treatment or when the size of the tumors >1000 mm^3. Mouse bodyweight was monitored once a week. Mice were CO^2 euthanized and the tumors were collected and weighed. Major organs were grossly examined and weighed as well.

[7] = 1, 0.25, 0.1 and 0.01 mg/g of diet
[8] = kava 5 and 1.25 mg/g, (+)-DHM 1, 0.25, 0.1 and 0.01 mg/g of diet

COC1=CC(=O)O[C@@H](CCc2ccc3c(c2)OCO3)C1 [(+)-DHM, (+)-dihydromethysticin]
effect on NNK-induced DNA damage in the liver tissues [1]: none of the treatments had significant effects
effect on O^6-mG ([2]; 0.01 mg/g of diet): no effect
extent of reduction in O^6-mG ([2]; 0.1 mg/g of diet): comparable to that induced by kava at a dose of 1.25 mg/g of diet
effect on 7-mG [2, 7]: dose-dependently reduced
effect on PHB adducts (7-phbG, O^6-phbdG, O^2-phbdT) [2, 7]: dose-dependently reduced
minimum chemopreventive (effective) dose estimated from DNA adduct reduction [2]: 0.01-0.1 mg/g of diet
effect on NNK-induced O^6-mG ([2]; isolated kavalactones 1 mg/g of diet Day 1-Day 7): significantly reduced
effect on O^6-mG, dose-response [2, 8]: preferentially and dose-dependently reduced
effect on POB adducts, dose-response [2, 8]: weaker effects

COC1=CC(=O)O[C@@H](CCc2ccc3c(c2)OCO3)C1 [DHM, dihydromethysticin]
serum ALT and AST when combined with APAP, vs APAP alone ([3]; APAP 800 mg/kg on third day, FKA and FKB 1, 2, 4 times abundance): no effect
serum ALT and AST, treatment alone (without APAP) ([3]; kava 500 mg/kg, FKA and FKB at 1, 2 and 4 times their abundance in kava 500 mg/kg): no effect
PhIP-induced DNA damage [4]: effectively and dose-dependently reduced
BaP-induced DNA damage [5]: effectively and dose-dependently reduced
tumor volume relative to control group [6]: significantly reduced
minimum chemopreventive (effective) dose estimated from DNA adduct reduction [2]: 0.01-0.1 mg/g of diet
